Source: publication PMC7782793, “Hydroxamic acid-modified peptide microarrays for profiling isozyme-selective interactions and inhibition of histone deacetylases” (Nature Communications, 2021)
Where “and” joins values, the source holds several entries; their conditions need not be identical. Equal entries are not always repeated. Marks after values point to notes of the source that are not given here. Non-standard residues stand in square brackets, D forms with d. Residues, ends and D or L forms follow the SMILES beside them. *: point of attachment. Asu = N[C@@H](CCCCCC(=O)O)C(=O)O; NHOH = ON*

Key:
HDAC8 = molecular target: T1, HDAC8 (Homo sapiens, UniProt Q9BY41); assay: HDAC inhibition assay (fluorogenic, Ac-Leu-Gly-Lys(Tfa)-AMC); format: biochemical; details: for HDAC8 dose-response data (relative enzyme activity, replicate values), Fig. 6 + S. Fig. 10: two replicate columns per inhibitor; for HDAC8 dose-response data (relative enzyme activity), Fig. 6 + S. Fig. 10: duplicate columns
T1 construct: HDAC8 (full length, C-terminal His tag, BPS Bioscience, cat. #: 50008); purchased BPS Bioscience 50008
T1 sequence (Q9BY41 1-377): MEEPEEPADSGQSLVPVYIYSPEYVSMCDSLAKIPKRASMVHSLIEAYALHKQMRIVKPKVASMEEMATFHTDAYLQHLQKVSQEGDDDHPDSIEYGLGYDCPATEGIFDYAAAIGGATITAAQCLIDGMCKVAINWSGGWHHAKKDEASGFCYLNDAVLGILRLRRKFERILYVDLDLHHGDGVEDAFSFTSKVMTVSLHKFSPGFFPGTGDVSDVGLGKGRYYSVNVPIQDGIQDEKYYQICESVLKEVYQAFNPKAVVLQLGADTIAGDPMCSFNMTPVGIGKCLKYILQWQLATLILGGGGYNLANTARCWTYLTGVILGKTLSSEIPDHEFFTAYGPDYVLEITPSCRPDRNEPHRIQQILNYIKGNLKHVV

HDAC1 [1] = molecular target: T2, HDAC1 (Homo sapiens, UniProt Q13547); assay: Recombinant HDAC µSPOT microarray binding assay;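 further: slides with spotted peptides incubated with six HDAC concentrations in HEPES buffer pH 7.4, spot intensities fitted by four-parameter logistic, EC50 as enzyme concentration giving half-maximal binding signal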
T2 construct: HDAC1 (full length, C-terminal His tag, C-terminal FLAG tag, BPS Bioscience, cat. #: 50051); FLAG (C); purchased BPS Bioscience 50051
T2 sequence (Q13547 whole entry): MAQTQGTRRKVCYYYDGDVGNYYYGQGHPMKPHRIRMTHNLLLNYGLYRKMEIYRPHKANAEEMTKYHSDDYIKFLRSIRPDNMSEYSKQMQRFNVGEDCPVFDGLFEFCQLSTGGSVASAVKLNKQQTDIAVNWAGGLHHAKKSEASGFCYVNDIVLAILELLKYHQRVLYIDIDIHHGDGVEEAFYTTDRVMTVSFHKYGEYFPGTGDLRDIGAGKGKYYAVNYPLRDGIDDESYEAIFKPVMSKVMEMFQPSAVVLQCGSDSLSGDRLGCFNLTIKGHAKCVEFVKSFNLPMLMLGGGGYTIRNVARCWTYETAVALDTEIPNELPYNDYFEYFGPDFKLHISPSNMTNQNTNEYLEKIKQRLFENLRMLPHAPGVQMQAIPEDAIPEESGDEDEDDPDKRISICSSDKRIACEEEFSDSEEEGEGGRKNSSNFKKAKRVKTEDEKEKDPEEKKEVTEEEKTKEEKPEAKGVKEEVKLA
Method: Experiments were performed twice, data were obtained with Array Analyze software (Active Motif), and data analysis and representation were performed with the GraphPad Prism 7 software. Outliers were curated manually and data were fitted to nonlinear regression [log(agonist) vs. response—variable slope (four parameters)]. […] Non-sigmoidal curves were denoted as not determined (N.D.) The pEC50 values were determined as the concentration of HDAC enzyme required for half-maximal binding signal.

HDAC3/NCoR2 [2] = molecular target: T3, HDAC3/NCoR2 (Homo sapiens, UniProt O15379); assay: Recombinant HDAC µSPOT microarray binding assay;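 further: peptide spots on cellulose slides incubated with rising HDAC enzyme concentrations, imaged together, four-parameter logistic fit, EC50 is enzyme concentration giving half-maximal binding signal, two experiments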
T3 construct: HDAC3/NCoR2 (full length, C-terminal His tag, NCoR2 N-terminal GST tag); purchased BPS Bioscience 50003
T3 sequence (O15379 whole entry): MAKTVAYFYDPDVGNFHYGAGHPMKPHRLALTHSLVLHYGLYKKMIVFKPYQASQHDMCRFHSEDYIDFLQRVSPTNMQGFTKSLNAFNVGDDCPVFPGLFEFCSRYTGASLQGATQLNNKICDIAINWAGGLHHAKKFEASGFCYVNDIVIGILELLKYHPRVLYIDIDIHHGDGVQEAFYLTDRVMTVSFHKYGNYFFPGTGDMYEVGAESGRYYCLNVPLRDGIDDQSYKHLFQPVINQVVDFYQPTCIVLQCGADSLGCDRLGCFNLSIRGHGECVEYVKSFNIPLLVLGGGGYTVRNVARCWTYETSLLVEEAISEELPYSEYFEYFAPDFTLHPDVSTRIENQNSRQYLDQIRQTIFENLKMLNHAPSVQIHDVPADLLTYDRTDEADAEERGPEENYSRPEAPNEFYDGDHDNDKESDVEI
T3 sequence (Q9Y618 389-480 partner limits assumed): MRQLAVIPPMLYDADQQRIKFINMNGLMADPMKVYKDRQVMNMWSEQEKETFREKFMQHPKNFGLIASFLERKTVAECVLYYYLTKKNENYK

HDAC6 = molecular target: T4, HDAC6 (Homo sapiens, UniProt Q9UBN7); assay: HDAC inhibition assay (fluorogenic, Ac-Leu-Gly-Lys(Ac)-AMC); format: biochemical; details: HDAC6, replicates
T4 construct: HDAC6 (full length, BPS Bioscience, cat. #: 50056); purchased BPS Bioscience 50056
T4 sequence (Q9UBN7 1-1215): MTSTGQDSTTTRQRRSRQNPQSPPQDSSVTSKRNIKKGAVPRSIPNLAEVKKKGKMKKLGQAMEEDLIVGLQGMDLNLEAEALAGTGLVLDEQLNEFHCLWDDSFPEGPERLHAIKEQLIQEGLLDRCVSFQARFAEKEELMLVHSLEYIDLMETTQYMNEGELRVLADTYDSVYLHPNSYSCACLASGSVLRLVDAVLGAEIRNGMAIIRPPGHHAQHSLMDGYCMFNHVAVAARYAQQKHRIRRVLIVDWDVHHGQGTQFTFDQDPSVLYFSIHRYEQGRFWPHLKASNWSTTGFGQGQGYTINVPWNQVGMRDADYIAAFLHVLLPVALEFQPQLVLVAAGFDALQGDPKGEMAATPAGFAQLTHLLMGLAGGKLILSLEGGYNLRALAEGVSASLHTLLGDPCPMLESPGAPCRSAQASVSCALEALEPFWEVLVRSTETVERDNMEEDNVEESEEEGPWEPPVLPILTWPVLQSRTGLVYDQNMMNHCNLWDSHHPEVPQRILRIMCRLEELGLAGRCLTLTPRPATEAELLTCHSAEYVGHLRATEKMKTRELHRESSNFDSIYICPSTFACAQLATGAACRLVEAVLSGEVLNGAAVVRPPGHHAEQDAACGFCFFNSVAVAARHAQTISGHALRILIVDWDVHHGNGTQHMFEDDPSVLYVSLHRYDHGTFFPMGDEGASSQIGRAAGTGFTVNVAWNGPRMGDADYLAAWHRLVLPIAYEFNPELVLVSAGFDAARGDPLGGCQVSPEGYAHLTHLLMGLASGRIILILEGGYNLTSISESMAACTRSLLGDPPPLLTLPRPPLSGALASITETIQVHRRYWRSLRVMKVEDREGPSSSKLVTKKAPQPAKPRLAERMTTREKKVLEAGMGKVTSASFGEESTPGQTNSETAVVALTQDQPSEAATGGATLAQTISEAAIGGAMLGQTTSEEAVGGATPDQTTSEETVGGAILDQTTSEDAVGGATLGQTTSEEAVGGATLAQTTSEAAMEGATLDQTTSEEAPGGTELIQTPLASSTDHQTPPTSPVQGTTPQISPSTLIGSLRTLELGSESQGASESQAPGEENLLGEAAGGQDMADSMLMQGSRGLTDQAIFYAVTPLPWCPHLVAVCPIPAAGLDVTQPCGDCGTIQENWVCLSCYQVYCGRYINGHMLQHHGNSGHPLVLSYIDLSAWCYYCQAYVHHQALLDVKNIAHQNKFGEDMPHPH

HDAC1 [3] = molecular target: T2, HDAC1; assay: as above; format: biochemical; details: for HDAC1 dose-response data (relative enzyme activity), Fig. 6 + S. Fig. 10: duplicate columns
HDAC2 [4] = molecular target: T5, HDAC2 (Homo sapiens, UniProt Q92769); assay: as above; format: biochemical; details: for HDAC2 dose-response data (relative enzyme activity), Fig. 6 + S. Fig. 10: duplicate columns
T5 construct: HDAC2 (full length, C-terminal His tag, BPS Bioscience, cat. #: 50002); purchased BPS Bioscience 50002
T5 sequence (Q92769 whole entry): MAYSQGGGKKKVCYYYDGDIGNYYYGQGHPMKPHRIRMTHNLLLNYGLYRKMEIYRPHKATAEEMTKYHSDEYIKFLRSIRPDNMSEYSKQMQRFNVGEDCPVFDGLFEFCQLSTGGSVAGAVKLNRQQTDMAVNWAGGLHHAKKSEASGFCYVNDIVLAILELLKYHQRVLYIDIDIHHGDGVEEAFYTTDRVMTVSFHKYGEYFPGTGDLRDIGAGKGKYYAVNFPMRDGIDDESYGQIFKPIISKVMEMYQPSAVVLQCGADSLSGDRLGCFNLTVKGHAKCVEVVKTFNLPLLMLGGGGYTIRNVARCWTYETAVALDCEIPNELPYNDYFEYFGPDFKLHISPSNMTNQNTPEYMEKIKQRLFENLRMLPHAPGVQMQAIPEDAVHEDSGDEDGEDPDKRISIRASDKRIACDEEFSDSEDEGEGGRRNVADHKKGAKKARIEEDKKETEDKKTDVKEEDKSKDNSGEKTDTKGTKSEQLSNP

HDACs 1‒3 and 8 = assay: HDAC inhibition assays, statements across several class I isozymes; format: biochemical, human; details: across the HDACs named in the sentence
HDAC3/NCoR2 [5] = molecular target: T3, HDAC3/NCoR2; assay: HDAC inhibition assay (fluorogenic, Ac-Leu-Gly-Lys(Ac)-AMC); format: biochemical; details: for HDAC3 dose-response data (relative enzyme activity), Fig. 6 + S. Fig. 10: duplicate columns
HDAC2 [6] = molecular target: T5, HDAC2; assay: Recombinant HDAC µSPOT microarray binding assay;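 further: Cellulose-bound peptide spots on slides incubated with six HDAC enzyme concentrations, binding intensity read, four-parameter variable-slope fit, EC50 is enzyme concentration giving half-maximal binding, in HEPES buffer pH 7.4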
[7] = log[inhibitor(M)] -10,5850266520292*, whole line marked with asterisks

CC(=O)N1CCC[C@H]1C(=O)N[C@@H](CCCNC(=N)N)C(=O)N[C@@H](CCCCN)C(=O)N[C@@H](CCC(N)=O)C(=O)N[C@@H](CC(C)C)C(=O)N[C@@H](C)C(=O)N[C@H](C(=O)N[C@@H](CCCCN)C(=O)N[C@@H](C)C(=O)N[C@@H](C)C(=O)N[C@@H](CCCNC(=N)N)C(=O)N[C@@H](CCCCCC(=O)NO)C(=O)N[C@@H](CO)C(=O)N[C@@H](C)C(=O)N1CCC[C@H]1C(=O)N[C@@H](C)C(=O)N[C@@H](Cc1c[nH]c2ccccc12)C(N)=O)[C@@H](C)O [14a] (Ac-PRKQLATKAAR[Asu](NHOH)SAPAW-NH2)
Ki (HDAC8): 55 ± 0.7 nM
HDAC8 dose-response data (relative enzyme activity, replicate values), Fig. 6 + S. Fig. 10 (HDAC8; Inhibitor conc [M] -8.49485 (log)): 89.9056 and 98.262
HDAC8 dose-response data (relative enzyme activity, replicate values), Fig. 6 + S. Fig. 10 (HDAC8; Inhibitor conc [M] -9.19382 (log)): 96.4725 and 98.8615
HDAC8 dose-response data (relative enzyme activity, replicate values), Fig. 6 + S. Fig. 10 (HDAC8; Inhibitor conc [M] given as -7.09691 (log)): 43.1119 and 55.3592
HDAC8 dose-response data (relative enzyme activity, replicate values), Fig. 6 + S. Fig. 10 (HDAC8; Inhibitor conc [M] given as -7.79588 (log)): 72.8593 and 80.9184
HDAC8 dose-response data (relative enzyme activity, replicate values), Fig. 6 + S. Fig. 10 (HDAC8; Inhibitor conc [M] given as -9.89279 (log)): 99.4729 and 100.504
HDAC8 dose-response data (relative enzyme activity), Fig. 6 + S. Fig. 10 (HDAC8; Inhibitor conc [M] -4.30103): 2.477 and 2.544
HDAC8 dose-response data (relative enzyme activity), Fig. 6 + S. Fig. 10 (HDAC8; Inhibitor conc [M] -5): 8.237 and 8.756
HDAC8 dose-response data (relative enzyme activity), Fig. 6 + S. Fig. 10 (HDAC8; Inhibitor conc [M] -5.69897): 16.1631 and 21.2375
HDAC8 dose-response data (relative enzyme activity), Fig. 6 + S. Fig. 10 (HDAC8; Inhibitor conc [M] -6.39794): 27.7385 and 36.3881
HDAC8 inhibition in words (HDAC8; in solution): robust nanomolar potency
EC50 (HDAC1 [1]): 9.12 nM
EC50 (HDAC3/NCoR2 [2]): 2.95 nM
residual enzymatic activity relative to control wells (HDAC6; log[inhibitor(M)] -4.30103): 0.91 and 1.08
residual enzymatic activity relative to control wells (HDAC6; log[inhibitor(M)] -5): 1.61 and 1.34
residual enzymatic activity relative to control wells (HDAC6; log[inhibitor(M)] -5.69897): 2.69 and 2.19
residual enzymatic activity relative to control wells (HDAC6; log[inhibitor(M)] -6.39794): 9.28 and 7.48
residual enzymatic activity relative to control wells (HDAC6; log[inhibitor(M)] -7.09691): 29.33 and 24.37
residual enzymatic activity relative to control wells (HDAC6; log[inhibitor(M)] -7.79588): 61.34 and 57.66
residual enzymatic activity relative to control wells (HDAC6; log[inhibitor(M)] -8.49485): 91.27 and 83.89
residual enzymatic activity relative to control wells (HDAC6; log[inhibitor(M)] -9.19382): 101.6 and 95.57
residual enzymatic activity relative to control wells (HDAC6; log[inhibitor(M)] -9.89279): 101.56 and 98.95
residual enzymatic activity relative to control wells (HDAC6; log[inhibitor(M)] -10.585): 102,36* and 98,9*
Ki (HDAC1 [3]): 24.7 ± 0.5 nM
HDAC1 dose-response data (relative enzyme activity), Fig. 6 + S. Fig. 10 (HDAC1 [3]; log[inhibitor(M)] -5): 15.0147 and 10.9187
HDAC1 dose-response data (relative enzyme activity), Fig. 6 + S. Fig. 10 (HDAC1 [3]; log[inhibitor(M)] -5.69897): 14.0922 and 20.0402
HDAC1 dose-response data (relative enzyme activity), Fig. 6 + S. Fig. 10 (HDAC1 [3]; log[inhibitor(M)] -6.39794): 32.9512 and 39.8845
HDAC1 dose-response data (relative enzyme activity), Fig. 6 + S. Fig. 10 (HDAC1 [3]; log[inhibitor(M)] -7.79588): 81.8715 and 100.09
HDAC1 dose-response data (relative enzyme activity), Fig. 6 + S. Fig. 10 (HDAC1 [3]; log[inhibitor(M)] -8.49485): 94.0176 and 111.23
HDAC1 dose-response data (relative enzyme activity), Fig. 6 + S. Fig. 10 (HDAC1 [3]; log[inhibitor(M)] -9.19382): 106.697 and 107.189
HDAC1 dose-response data (relative enzyme activity), Fig. 6 + S. Fig. 10 (HDAC1 [3]; log[inhibitor(M)] -9.89279): 102.41 and 107.234
HDAC1 dose-response data (relative enzyme activity), Fig. 6 + S. Fig. 10 (HDAC1 [3]; [7]): 103,6577* and 97,95181*
HDAC2 dose-response data (relative enzyme activity), Fig. 6 + S. Fig. 10 (HDAC2 [4]; log[inhibitor(M)] -5): 11.6652 and 17.3045
HDAC2 dose-response data (relative enzyme activity), Fig. 6 + S. Fig. 10 (HDAC2 [4]; log[inhibitor(M)] -5.69897): 34.222 and 35.4537
HDAC2 dose-response data (relative enzyme activity), Fig. 6 + S. Fig. 10 (HDAC2 [4]; log[inhibitor(M)] -7.79588): 103.08 and 94.3091
HDAC2 dose-response data (relative enzyme activity), Fig. 6 + S. Fig. 10 (HDAC2 [4]; [7]): 107,4969* and 95,99841*
Ki (HDAC2 [4]; resynthesized peptide in solution, Cheng-Prusoff, n = 2): 98 ± 1 nM
inhibitory potency in words (HDACs 1‒3 and 8): inhibited all four isozymes with similar potency
Ki (HDAC3/NCoR2 [5]): 16.8 ± 0.2 nM
HDAC3 dose-response data (relative enzyme activity), Fig. 6 + S. Fig. 10 (HDAC3/NCoR2 [5]; log[inhibitor(M)] -4.30103): 0.8181 and 0.573
HDAC3 dose-response data (relative enzyme activity), Fig. 6 + S. Fig. 10 (HDAC3/NCoR2 [5]; log[inhibitor(M)] -5): 3.641 and 2.7786
HDAC3 dose-response data (relative enzyme activity), Fig. 6 + S. Fig. 10 (HDAC3/NCoR2 [5]; log[inhibitor(M)] -5.69897): 13.6613 and 10.1867
HDAC3 dose-response data (relative enzyme activity), Fig. 6 + S. Fig. 10 (HDAC3/NCoR2 [5]; log[inhibitor(M)] -6.39794): 32.1253 and 23.5469
HDAC3 dose-response data (relative enzyme activity), Fig. 6 + S. Fig. 10 (HDAC3/NCoR2 [5]; log[inhibitor(M)] -7.09691): 54.9619 and 43.4084
HDAC3 dose-response data (relative enzyme activity), Fig. 6 + S. Fig. 10 (HDAC3/NCoR2 [5]; log[inhibitor(M)] -7.79588): 82.3244 and 70.9683
HDAC3 dose-response data (relative enzyme activity), Fig. 6 + S. Fig. 10 (HDAC3/NCoR2 [5]; log[inhibitor(M)] -8.49485): 99.6485 and 88.5218
HDAC3 dose-response data (relative enzyme activity), Fig. 6 + S. Fig. 10 (HDAC3/NCoR2 [5]; log[inhibitor(M)] -9.19382): 108.712 and 95.7391
HDAC3 dose-response data (relative enzyme activity), Fig. 6 + S. Fig. 10 (HDAC3/NCoR2 [5]; log[inhibitor(M)] -9.89279): 105.572 and 99.3991
HDAC3 dose-response data (relative enzyme activity), Fig. 6 + S. Fig. 10 (HDAC3/NCoR2 [5]; [7]): 106,3724* and 79,46551*
EC50 (HDAC2 [6]): 2.82 nM
